In patent US20020137929A1, “1 - (3-heterocyclylphenyl) isothiourea, -isourea, -guanidine and -amidine herbicidal agents” (Intellectual Property Department, BASF Aktiengesellschaft, priority 1998, published 2002):

Key:
CASOB (Sicklepod) [1] = test: Preemergence herbicidal evaluation; assay type: in vivo, Cassia obtusifolia; conditions: rated 4-5 weeks after treatment
In short: (§1)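 Herbicidal effect scored visually, 0-9, at 4 to 5 weeks against a control; compound applied preemergence by aqueous acetone spray to seeded soil at about 0.0156 to 0.500 kg/ha.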

CYPIR (Rice Flatsedge) = test: Postemergence weed control under flooded paddy conditions; assay type: in vivo, Cyperus iria; conditions: postemergence weeds, rated 3 to 4 weeks after treatment
In short: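 Injury ratings (0–9 scale covering stand, vigor, malformation, size, chlorosis and overall appearance versus control) were made three to four weeks after treatment. Test material, about 0.0313 to 0.500 kg/ha a.i. in 50/50 v/v aqueous/acetone, was added to flood water 1.5 to 3 cm deep over 3 to 5 cm weeds and 1.5 to 2.5 leaf rice.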

[2] = tested on: GLXMAW (Soybean, Williams); test: Preemergence herbicidal evaluation; assay type: in vivo, Glycine max, (L.) Merr. cv Williams; conditions: rated 4-5 weeks after treatment
In short: as §1

GALAP (Galium) = test: Postemergence herbicidal evaluation; assay type: in vivo, Galium aparine; conditions: postemergence
In short: (§2)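 ~2-wk seedlings; postemergence spray, 40 psi; vehicle 1:1 acetone:water + 0.5% Tween 20; rate ≈0.0156–0.500 kg/ha; greenhouse hold; scored 4–5 wk after treatment, 0–9 scale vs control; repeat tests averaged.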

CASOB (Sicklepod) [3] = test: Postemergence herbicidal evaluation; assay type: in vivo, Cassia obtusifolia; conditions: postemergence
In short: as §2

[4] = tested on: IPOHE (Morningglory, Ivyleaf); test: Preemergence herbicidal evaluation; assay type: in vivo, Ipomoea hederacea; conditions: rated 4-5 weeks after treatment
In short: as §1

AMBEL (Ragweed, Common) = test: Postemergence herbicidal evaluation; assay type: in vivo, Ambrosia artemisifolia; conditions: postemergence
In short: as §2

ECHCG (Barnyardgrass) = test: Preemergence herbicidal evaluation; assay type: in vivo, Echinochloa crus-galli; conditions: rated 4-5 weeks after treatment
In short: as §1

[5] = tested on: IPOHE (Morningglory, Ivyleaf); test: Postemergence herbicidal evaluation; assay type: in vivo, Ipomoea hederacea; conditions: postemergence
In short: as §2

[6] = tested on: SAGPY (Arrowhead (Pygmaea)); test: Preemergence weed control under flooded paddy conditions; assay type: in vivo, Sagittaria pygmaea; conditions: rated 3-4 weeks after treatment
In short: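 Ratings on a 0-9 visual scale cover stand, vigor, malformation, size, chlorosis and overall appearance relative to a control, taken three to four weeks post-treatment. Application was into flood water over freshly sown silt loam at roughly 0.0313 to 0.500 kg/ha.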

[7] = tested on: TRZAWR (Wheat, Winter, cv Riband); test: Preemergence herbicidal evaluation; assay type: in vivo, Triticum aestivum; conditions: rated 4-5 weeks after treatment
In short: as §1

ABUTH (Velvetleaf) = test: Preemergence herbicidal evaluation; assay type: in vivo, Abutilon theophrasti; conditions: rated 4-5 weeks after treatment
In short: as §1

ZEAMX (Corn, Field) = test: Preemergence herbicidal evaluation; assay type: in vivo, Zea mays; conditions: rated 4-5 weeks after treatment
In short: as §1

SMILES: CCOC(=O)C(c1ccc(Cl)cc1)N1C(=O)CSC1=Nc1cc(-n2c(=O)cc(C(F)(F)F)n(C)c2=O)c(F)cc1Cl (racemic) [Compound 79, Ethyl α-(p-chlorophenyl)-2-{{2-chloro-5-[3,6-dihydro-3-methyl-2,6-dioxo-4-(trifluoromethyl)-1(2H)-pyrimidinyl]-4-fluorophenyl}imino}-4-oxo-3-thiazolidineacetate, DL-]
- Preemergence herbicidal rating CASOB (CASOB (Sicklepod) [1]; rate 0.0313 kg/ha): 1.0
- Preemergence herbicidal rating CASOB (CASOB (Sicklepod) [1]; rate 0.0625 kg/ha): 0.0
- Preemergence herbicidal rating CASOB (CASOB (Sicklepod) [1]; rate 0.1250 kg/ha): 0.0
- Preemergence herbicidal rating CASOB (CASOB (Sicklepod) [1]; rate 0.2500 kg/ha): 1.0
- Herbicidal rating CYPIR (CYPIR (Rice Flatsedge); Rate 0.0313 kg/ha): 0.0
- Herbicidal rating CYPIR (CYPIR (Rice Flatsedge); Rate 0.0625 kg/ha): 0.0
- Herbicidal rating CYPIR (CYPIR (Rice Flatsedge); Rate 0.1250 kg/ha): 2.0
- Herbicidal rating CYPIR (CYPIR (Rice Flatsedge); Rate 0.2500 kg/ha): 6.0
- Preemergence herbicidal rating GLXMAW ([2]; rate 0.0313 kg/ha): 1.0
- Preemergence herbicidal rating GLXMAW ([2]; rate 0.0625 kg/ha): 1.0
- Preemergence herbicidal rating GLXMAW ([2]; rate 0.1250 kg/ha): 0.0
- Preemergence herbicidal rating GLXMAW ([2]; rate 0.2500 kg/ha): 2.0
- GALAP herbicidal rating (GALAP (Galium); rate 0.0158 kg/ha): 1.0
- GALAP herbicidal rating (GALAP (Galium); rate 0.0315 kg/ha): 2.0
- GALAP herbicidal rating (GALAP (Galium); rate 0.0630 kg/ha): 1.0
- CASOB herbicidal rating (CASOB (Sicklepod) [3]; rate 0.0158 kg/ha): 1.0
- CASOB herbicidal rating (CASOB (Sicklepod) [3]; rate 0.0315 kg/ha): 1.0
- CASOB herbicidal rating (CASOB (Sicklepod) [3]; rate 0.0630 kg/ha): 1.0
- Preemergence herbicidal rating IPOHE ([4]; rate 0.0313 kg/ha): 0.0
- Preemergence herbicidal rating IPOHE ([4]; rate 0.0625 kg/ha): 0.0
- Preemergence herbicidal rating IPOHE ([4]; rate 0.1250 kg/ha): 0.0
- Preemergence herbicidal rating IPOHE ([4]; rate 0.2500 kg/ha): 1.0
- AMBEL herbicidal rating (AMBEL (Ragweed, Common); rate 0.0158 kg/ha): 6.0
- AMBEL herbicidal rating (AMBEL (Ragweed, Common); rate 0.0315 kg/ha): 7.0
- AMBEL herbicidal rating (AMBEL (Ragweed, Common); rate 0.0630 kg/ha): 9.0
- Preemergence herbicidal rating ECHCG (ECHCG (Barnyardgrass); rate 0.0313 kg/ha): 0.0
- Preemergence herbicidal rating ECHCG (ECHCG (Barnyardgrass); rate 0.0625 kg/ha): 0.0
- Preemergence herbicidal rating ECHCG (ECHCG (Barnyardgrass); rate 0.1250 kg/ha): 0.0
- Preemergence herbicidal rating ECHCG (ECHCG (Barnyardgrass); rate 0.2500 kg/ha): 0.0
- IPOHE herbicidal rating ([5]; rate 0.0158 kg/ha): 9.0
- IPOHE herbicidal rating ([5]; rate 0.0315 kg/ha): 9.0
- IPOHE herbicidal rating ([5]; rate 0.0630 kg/ha): 9.0
- SAGPY herbicidal effect rating ([6]; 0.0313 kg/ha): 0.0
- SAGPY herbicidal effect rating ([6]; 0.0625 kg/ha): 0.0
- SAGPY herbicidal effect rating ([6]; 0.1250 kg/ha): 4.0
- SAGPY herbicidal effect rating ([6]; 0.2500 kg/ha): 4.0
- Preemergence herbicidal rating TRZAWR ([7]; rate 0.0313 kg/ha): 0.0
- Preemergence herbicidal rating TRZAWR ([7]; rate 0.0625 kg/ha): 1.0
- Preemergence herbicidal rating TRZAWR ([7]; rate 0.1250 kg/ha): 0.0
- Preemergence herbicidal rating TRZAWR ([7]; rate 0.2500 kg/ha): 1.0
- Preemergence herbicidal rating ABUTH (ABUTH (Velvetleaf); rate 0.0313 kg/ha): 0.0
- Preemergence herbicidal rating ABUTH (ABUTH (Velvetleaf); rate 0.0625 kg/ha): 2.0
- Preemergence herbicidal rating ABUTH (ABUTH (Velvetleaf); rate 0.1250 kg/ha): 6.0
- Preemergence herbicidal rating ABUTH (ABUTH (Velvetleaf); rate 0.2500 kg/ha): 9.0
- Preemergence herbicidal rating ZEAMX (ZEAMX (Corn, Field); rate 0.0313 kg/ha): 1.0
- Preemergence herbicidal rating ZEAMX (ZEAMX (Corn, Field); rate 0.0625 kg/ha): 1.0
- Preemergence herbicidal rating ZEAMX (ZEAMX (Corn, Field); rate 0.1250 kg/ha): 1.0
- Preemergence herbicidal rating ZEAMX (ZEAMX (Corn, Field); rate 0.2500 kg/ha): 2.0

SMILES: Cn1c(C(F)(F)F)cc(=O)n(-c2cc(N=C3SCC(=O)N3[C@H](Cc3ccccc3)C(=O)O)c(Cl)cc2F)c1=O [Compound 69, α-Benzyl-2-{{2-chloro-5-[3,6-dihydro-3-methyl-2,6-dioxo-4-(trifluoromethyl)-1(2H)-pyrimidinyl]-4-fluorophenyl}imino}-4-oxo-3-thiazolidineacetic acid, D-]
- Preemergence herbicidal rating CASOB (CASOB (Sicklepod) [1]; rate 0.0156 kg/ha): 0.0
- Preemergence herbicidal rating CASOB (CASOB (Sicklepod) [1]; rate 0.0313 kg/ha): 0.0
- Preemergence herbicidal rating CASOB (CASOB (Sicklepod) [1]; rate 0.0625 kg/ha): 0.0
- Preemergence herbicidal rating CASOB (CASOB (Sicklepod) [1]; rate 0.1250 kg/ha): 1.0
- Preemergence herbicidal rating CASOB (CASOB (Sicklepod) [1]; rate 0.2500 kg/ha): 5.0
- Herbicidal rating CYPIR (CYPIR (Rice Flatsedge); Rate 0.0313 kg/ha): 3.0
- Herbicidal rating CYPIR (CYPIR (Rice Flatsedge); Rate 0.0625 kg/ha): 3.0
- Herbicidal rating CYPIR (CYPIR (Rice Flatsedge); Rate 0.1250 kg/ha): 3.0
- Herbicidal rating CYPIR (CYPIR (Rice Flatsedge); Rate 0.2500 kg/ha): 3.0
- Preemergence herbicidal rating GLXMAW ([2]; rate 0.0156 kg/ha): 1.0
- Preemergence herbicidal rating GLXMAW ([2]; rate 0.0313 kg/ha): 0.0
- Preemergence herbicidal rating GLXMAW ([2]; rate 0.0625 kg/ha): 0.0
- Preemergence herbicidal rating GLXMAW ([2]; rate 0.1250 kg/ha): 1.0
- Preemergence herbicidal rating GLXMAW ([2]; rate 0.2500 kg/ha): 2.0
- GALAP herbicidal rating (GALAP (Galium); rate 0.0158 kg/ha): 0.0
- GALAP herbicidal rating (GALAP (Galium); rate 0.0315 kg/ha): 1.0
- GALAP herbicidal rating (GALAP (Galium); rate 0.0630 kg/ha): 5.0
- CASOB herbicidal rating (CASOB (Sicklepod) [3]; rate 0.0158 kg/ha): 1.0
- CASOB herbicidal rating (CASOB (Sicklepod) [3]; rate 0.0315 kg/ha): 2.0
- CASOB herbicidal rating (CASOB (Sicklepod) [3]; rate 0.0630 kg/ha): 2.0
- Preemergence herbicidal rating IPOHE ([4]; rate 0.0313 kg/ha): 0.0
- Preemergence herbicidal rating IPOHE ([4]; rate 0.0625 kg/ha): 2.0
- Preemergence herbicidal rating IPOHE ([4]; rate 0.1250 kg/ha): 1.0
- Preemergence herbicidal rating IPOHE ([4]; rate 0.2500 kg/ha): 4.0
- AMBEL herbicidal rating (AMBEL (Ragweed, Common); rate 0.0158 kg/ha): 9.0
- AMBEL herbicidal rating (AMBEL (Ragweed, Common); rate 0.0315 kg/ha): 9.0
- AMBEL herbicidal rating (AMBEL (Ragweed, Common); rate 0.0630 kg/ha): 9.0
- Preemergence herbicidal rating ECHCG (ECHCG (Barnyardgrass); rate 0.0156 kg/ha): 0.0
- Preemergence herbicidal rating ECHCG (ECHCG (Barnyardgrass); rate 0.0313 kg/ha): 0.0
- Preemergence herbicidal rating ECHCG (ECHCG (Barnyardgrass); rate 0.0625 kg/ha): 0.0
- Preemergence herbicidal rating ECHCG (ECHCG (Barnyardgrass); rate 0.1250 kg/ha): 1.0
- Preemergence herbicidal rating ECHCG (ECHCG (Barnyardgrass); rate 0.2500 kg/ha): 3.0
- IPOHE herbicidal rating ([5]; rate 0.0158 kg/ha): 9.0
- IPOHE herbicidal rating ([5]; rate 0.0315 kg/ha): 9.0
- IPOHE herbicidal rating ([5]; rate 0.0630 kg/ha): 9.0
- SAGPY herbicidal effect rating ([6]; 0.0313 kg/ha): 0.0
- SAGPY herbicidal effect rating ([6]; 0.0625 kg/ha): 0.0
- SAGPY herbicidal effect rating ([6]; 0.1250 kg/ha): 3.0
- SAGPY herbicidal effect rating ([6]; 0.2500 kg/ha): 3.0
- Preemergence herbicidal rating TRZAWR ([7]; rate 0.0156 kg/ha): 0.0
- Preemergence herbicidal rating TRZAWR ([7]; rate 0.0313 kg/ha): 0.0
- Preemergence herbicidal rating TRZAWR ([7]; rate 0.0625 kg/ha): 0.0
- Preemergence herbicidal rating TRZAWR ([7]; rate 0.1250 kg/ha): 1.0
- Preemergence herbicidal rating TRZAWR ([7]; rate 0.2500 kg/ha): 1.0
- Preemergence herbicidal rating ABUTH (ABUTH (Velvetleaf); rate 0.0156 kg/ha): 0.0
- Preemergence herbicidal rating ABUTH (ABUTH (Velvetleaf); rate 0.0313 kg/ha): 0.0
- Preemergence herbicidal rating ABUTH (ABUTH (Velvetleaf); rate 0.0625 kg/ha): 9.0
- Preemergence herbicidal rating ABUTH (ABUTH (Velvetleaf); rate 0.1250 kg/ha): 9.0
- Preemergence herbicidal rating ABUTH (ABUTH (Velvetleaf); rate 0.2500 kg/ha): 9.0
- Preemergence herbicidal rating ZEAMX (ZEAMX (Corn, Field); rate 0.0156 kg/ha): 0.0
- Preemergence herbicidal rating ZEAMX (ZEAMX (Corn, Field); rate 0.0313 kg/ha): 0.0
- Preemergence herbicidal rating ZEAMX (ZEAMX (Corn, Field); rate 0.0625 kg/ha): 0.0
- Preemergence herbicidal rating ZEAMX (ZEAMX (Corn, Field); rate 0.1250 kg/ha): 3.0
- Preemergence herbicidal rating ZEAMX (ZEAMX (Corn, Field); rate 0.2500 kg/ha): 3.0
